“And” between values parts separate entries of the source, which are not always exact repeats. Equal values may be shown once. Toxic doses and inconclusive results are not listed. Starred links: 1 amine or outer side, 2 acyl side, 3 side chain; linkers in the order of their positions; H or OH if unused. Positions of bridges follow the written chain, without caps; N, C: chain ends. Non-standard residues stand in square brackets, D forms with d. Residues, ends and D or L forms follow the SMILES beside them. Chains are numbered I, II in the order given. Actinocin(1to9) = Cc1c2oc3c(C)ccc(C(=O)[*:2])c3nc-2c(C(=O)[*:1])c(N)c1=O; X3 = O=C1CC(C(=O)[*:2])N([*:1])C1; NMeV = CN[CH](C(=O)O)C(C)C; Sar = CNCC(=O)O
Test system: BDF1 mice, P388 leukemia ip, median survival T/C
Assay: NCI In Vivo Anticancer Drug Screen. Data for tumor model P388 Leukemia (intraperitoneal) in B6D2F1 (BDF1) mice
Details: endpoint: median survival time, higher = longer survival
Method in brief: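 Antitumour effect was judged in vivo: survival in drug-treated mice, normalised to that of vehicle-dosed controls, gives the reported T/C.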

[1] = dose: 50.0 mg/kg/injection, schedule: Q01DX009 (ip), vehicle: saline with Tween-80
[2] = dose: 100.0 mg/kg/injection, schedule: Q01DX009 (ip), vehicle: saline with Tween-80

CCOC(=N)c1cn(C2OC(CO)C(O)C2O)c2ncnc(N)c12 (centres undefined)
T/C (dose: 0.12 mg/kg/injection, schedule: Q01DX009 (ip), vehicle: saline with Tween-80): 168 % of control | T/C (dose: 0.22 mg/kg/injection, schedule: Q01DX009 (ip), vehicle: saline): 174 % of control | T/C (dose: 0.25 mg/kg/injection, schedule: Q01DX009 (ip), vehicle: saline with Tween-80): 195 % of control | T/C (dose: 0.33 mg/kg/injection, schedule: Q01DX009 (ip), vehicle: saline): 196 % of control | T/C (dose: 0.5 mg/kg/injection, schedule: Q01DX009 (ip), vehicle: saline with Tween-80): 163 % of control | T/C (dose: 0.5 mg/kg/injection, schedule: Q01DX009 (ip), vehicle: saline): 186 % of control | T/C (dose: 0.5 mg/kg/injection, schedule: Q04DX003 (ip), vehicle: saline with Tween-80): 150 % of control | T/C (dose: 0.75 mg/kg/injection, schedule: Q01DX009 (ip), vehicle: saline): 196 % of control | T/C (dose: 0.8 mg/kg/injection, schedule: Q04DX003 (ip), vehicle: saline with Tween-80): 190 % of control | T/C (dose: 1.2 mg/kg/injection, schedule: Q04DX003 (ip), vehicle: saline with Tween-80): 272 % of control | T/C (dose: 1.8 mg/kg/injection, schedule: Q04DX003 (ip), vehicle: saline with Tween-80): 190 % of control and 209 % of control | T/C (dose: 2.6 mg/kg/injection, schedule: Q04DX003 (ip), vehicle: saline with Tween-80): 200 % of control | T/C (dose: 6.0 mg/kg/injection, schedule: Q04DX003 (ip), vehicle: saline with Tween-80): 90 % of control | T/C (dose: 5.3 micrograms/kg/injection, schedule: Q01DX009 (ip), vehicle: saline): 106 % of control | T/C (dose: 8.0 micrograms/kg/injection, schedule: Q01DX009 (ip), vehicle: saline): 115 % of control | T/C (dose: 15.0 micrograms/kg/injection, schedule: Q01DX009 (ip), vehicle: saline with Tween-80): 120 % of control | T/C (dose: 27.0 micrograms/kg/injection, schedule: Q01DX009 (ip), vehicle: saline): 152 % of control | T/C (dose: 40.0 micrograms/kg/injection, schedule: Q01DX009 (ip), vehicle: saline): 159 % of control | T/C (dose: 60.0 micrograms/kg/injection, schedule: Q01DX009 (ip), vehicle: saline): 169 % of control | T/C (dose: 66.0 micrograms/kg/injection, schedule: Q01DX009 (ip), vehicle: saline): 155 % of control | T/C (dose: 100.0 micrograms/kg/injection, schedule: Q01DX009 (ip), vehicle: saline): 154 % of control

Cc1cc2nccc(/C=C/c3ccc(N(C)C)cc3)c2cc1C
T/C [1]: 112 % of control | T/C [2]: 120 % of control | T/C (dose: 200.0 mg/kg/injection, schedule: Q01DX009 (ip), vehicle: saline with Tween-80): 98 % of control

CCCCCCCCCCCCCCCCCS(=O)S(=O)O (centres undefined)
T/C (dose: 89.0 mg/kg/injection, schedule: Q01DX009 (ip), vehicle: saline with Tween-80): 116 % of control | T/C (dose: 100.0 mg/kg/injection, schedule: Q01DX009 (ip), vehicle: Klucel (hydroxypropylcellulose) (HPC)): 116 % of control | T/C (dose: 132.0 mg/kg/injection, schedule: Q01DX009 (ip), vehicle: Klucel (hydroxypropylcellulose) (HPC)): 109 % of control | T/C (dose: 200.0 mg/kg/injection, schedule: Q01DX009 (ip), vehicle: Klucel (hydroxypropylcellulose) (HPC)): 119 % of control | T/C (dose: 300.0 mg/kg/injection, schedule: Q01DX009 (ip), vehicle: Klucel (hydroxypropylcellulose) (HPC)): 122 % of control

O=c1[nH]cnc2c1nc1n2CCC1
T/C (dose: 50.0 mg/kg/injection, schedule: Q04DX003 (ip), vehicle: saline with Tween-80): 90 % of control | T/C (dose: 100.0 mg/kg/injection, schedule: Q04DX003 (ip), vehicle: saline with Tween-80): 90 % of control | T/C (dose: 200.0 mg/kg/injection, schedule: Q04DX003 (ip), vehicle: saline with Tween-80): 113 % of control

Cc1c2oc3c(C)ccc(C(=O)NC4C(=O)NC(C(C)C)C(=O)N5CCCC5C(=O)N(C)CC(=O)N(C)C(C(C)C)C(=O)OC4C)c3nc-2c(C(=O)NC2C(=O)NC(C(C)C)C(=O)N3CC(=O)CC3C(=O)N(C)CC(=O)N(C)C(C(C)C)C(=O)OC2C)c(N)c1=O (centres undefined) (I: TV[X3][Sar][NMeV] / II: TVP[Sar][NMeV]; ester I:1-I:C, II:1-II:C; linker I:N-II:N via Actinocin(1to9); configuration not given here)
T/C (dose: 1.6 micrograms/kg/injection, schedule: Q01DX009 (ip), vehicle: water): 120 % of control | T/C (dose: 4.7 micrograms/kg/injection, schedule: Q04DX003 (ip), vehicle: water): 163 % of control | T/C (dose: 9.4 micrograms/kg/injection, schedule: Q04DX003 (ip), vehicle: water): 162 % of control | T/C (dose: 12.5 micrograms/kg/injection, schedule: Q01DX009 (ip), vehicle: water): 172 % of control | T/C (dose: 25.0 micrograms/kg/injection, schedule: Q01DX001 (ip), vehicle: water): 155 % of control | T/C (dose: 25.0 micrograms/kg/injection, schedule: Q01DX009 (ip), vehicle: water): 120 % of control | T/C (dose: 37.5 micrograms/kg/injection, schedule: Q04DX003 (ip), vehicle: water): 175 % of control | T/C (dose: 50.0 micrograms/kg/injection, schedule: Q01DX001 (ip), vehicle: water): 155 % of control | T/C (dose: 75.0 micrograms/kg/injection, schedule: Q04DX003 (ip), vehicle: water): 86 % of control

O=C1NC(=O)N(c2ccccc2)C(=O)/C1=C/c1ccccc1
T/C (dose: 50.0 mg/kg/injection, schedule: Q01DX001 (ip), vehicle: saline sonified): 110 % of control | T/C (dose: 100.0 mg/kg/injection, schedule: Q01DX001 (ip), vehicle: saline sonified): 105 % of control | T/C (dose: 200.0 mg/kg/injection, schedule: Q01DX001 (ip), vehicle: saline sonified): 100 % of control

O=C(CC(=O)C(F)(F)F)c1ccc(-c2ccccc2)cc1
T/C [1]: 110 % of control | T/C [2]: 122 % of control

CCB1OCC2OB(CC)OC2C2OB(CC)OC2CO1 (centres undefined)
T/C (dose: 50.0 mg/kg/injection, schedule: Q01DX009 (ip), vehicle: saline): 100 % of control | T/C (dose: 100.0 mg/kg/injection, schedule: Q01DX009 (ip), vehicle: saline): 97 % of control | T/C (dose: 200.0 mg/kg/injection, schedule: Q01DX009 (ip), vehicle: saline): 93 % of control
